From article PMC6896172, “Successful Targeting of the Warburg Effect in Prostate Cancer by Glucose-Conjugated 1,4-Naphthoquinones” (Cancers, 2019)
pIC50: −log10 of the molar value.

What was measured:
PC-3 cells = assay: MTT cytotoxicity assay in PC-3 cells; format: cell-based, human
Source text: For general experiments human prostate cancer cell lines PC-3 and DU145 (docetaxel-resistant, androgen-independent, AR-FL(−), AR-V7(−)), 22Rv1 and VCaP (docetaxel-sensitive, androgen-independent, AR-FL(+), AR-V7(+), and LNCaP (docetaxel sensitive, androgen-dependent, AR-FL(+), AR-V7(−) were used. PC-3, 22Rv1, LNCaP cells as well as the human prostate non-cancer cells PNT2 and RWPE-1 were purchased from ATCC (Manassas, VA, USA). VCaP were purchased from ECACC (Salisbury, UK). The human fibroblast cell line MRC-9, the human embryonic kidney cell line HEK 293T, as well as the human umbilical vascular endothelial cell line HUVEC were kindly donated by Prof. Dr. Dr. med. Sonja Loges (University Medical Center Hamburg-Eppendorf, Hamburg, Germany). Cells were cultured according to the manufacturers’ instructions and were recently authenticated by a commercial service (Multiplexion, Heidelberg, Germany). Culture conditions are described in the Supplementary Information.
(§1) MTT (3-(4,5-dimethylthiazol-2-yl)-2,5-diphenyltetrazolium bromide) cytotoxicity assay was used for the evaluation of cytotoxicity of the compounds or their combinations. Experiments were performed as previously described. In brief, 6000 cells/well were seeded in 96-well plate, incubated overnight, and treated with the drugs in 100 µL/well of 10% FBS/RPMI media containing 2 g/L of D-(+)-glucose for 48 h, unless otherwise stated. For 2 h treatment the cells were treated with the drugs for 2 h in the culture media, then the media was exchanged to fresh drug-free media (100 µL/well) containing MTT reagent and the further steps were performed as previously described.
Table S4. Cytotoxic activity of the synthesized compounds. Cytotoxicity was determined in human prostate cancer PC-3 cells versus human prostate non-cancer
PNT2 cells after 48 h of treatment, as well as its ratio. IC50 was evaluated using MTT assay. SI–selectivity index. #–the IC50s in both cell lines were >100 µM.
Anisomycin was used as a reference substance.
No Formula IC50(PC-3) IC50(PNT2) SI […]

RWPE-1 cells = assay: MTT cytotoxicity assay in RWPE-1 cells; format: cell-based; conditions: Homo sapiens, 48 h of treatment, non-cancer
Description: (§2) Dr. Dr. med. Sonja Loges (University Medical Center Hamburg-Eppendorf, Hamburg, Germany). Cells were cultured according to the manufacturers’ instructions and were recently authenticated by a commercial service (Multiplexion, Heidelberg, Germany). Culture conditions are described in the Supplementary Information.
as §1

DU145 cells = assay: MTT cytotoxicity assay in DU145 cells; format: cell-based; conditions: Homo sapiens, DU-145, 48 h of treatment, cancer
Description: as §2, §1

22Rv1 cells [1] = assay: MTT cytotoxicity assay in 22Rv1 cells; format: cell-based, human; conditions: for pIC50: Homo sapiens
Description: as §2, §1

LNCaP cells = assay: MTT cytotoxicity assay in LNCaP cells; format: cell-based; conditions: Homo sapiens, 48 h of treatment, cancer
Description: as §2, §1

22Rv1 cells [2] = assay: Trypan blue exclusion viability assay; format: cell-based; conditions: Homo sapiens, 48 h of treatment
Description: The in vitro effect of the drugs on cell viability and proliferation was evaluated using trypan blue exclusion assay as described before with minor modifications. In brief, cells (0.2 × 10^6 cells/well) were seeded in 12-well plates, incubated overnight, the media was replaced with fresh media (1 mL/well) and treated with the drugs for 48 h. Cells were harvested by trypsination and the viability was measured using trypan blue staining and Beckman Coulter Vi-CELL (Beckman Coulter, Krefeld, Germany).

22Rv1 cells [3] = assay: Mitochondrial membrane potential assay (JC-1, flow cytometry); format: cell-based, human; conditions: 2 h of treatment
Description: The loss of mitochondrial membrane potential (Δψ) was measured by flow cytometry technique using staining with Δψ-sensitive dye JC-1 (5,5′,6,6′-tetrachloro-1,1′,3,3′-tetraethylimidacarbocyanine iodide). Cells were seeded in 12-well plates (100 × 10^3 cells/well in 1 mL/well) and incubated overnight. Then, the media was changed to PBS (1 mL/well) containing the investigational drugs. After 2 h of incubation (37 °C, 5% CO2, in the dark) the cells were trypsinized, pelleted, resuspended in 100 µL of 2 µM JC-1/PBS, incubated for 1 h (37 °C, 5% CO2, in the dark) and Δψ loss was measured by flow cytometry technique.

22Rv1 cells [4] = assay: Colony formation assay; format: cell-based, human; conditions: 22Rv1 cells treated with non-cytotoxic concentrations for 48 h
Description: Colony formation assays were performed as described before. In brief, cells were treated with the drugs for 48 h and then 100 alive cells were plated into each well of 6-well plates and incubated for 10 days. Surviving colonies were fixed, stained with Giemsa solution and counted.

22Rv1 cells [5] = assay: Cell fractionation followed by Western blotting; format: cell-based, human; conditions: 48 h
Description: Preparation of protein extracts for western blotting was performed as described previously. In brief, for western blotting, 1 × 10^6 cells/well were seeded in Petri dishes (ø 6 cm TC Dish (Sarstedt, Numbrecht, Germany) in 5 mL/dish), incubated overnight and treated with drugs in 5 mL/dish for an indicated time. Cells were harvested using a cell scraper, pelleted, and resuspended in the lysis buffer containing protease and phosphatase inhibitors. Further sample preparation and western blotting were performed as previously described with slight modifications. Relative optical density of the detected bands was quantified with Quantity One 4.6 software (Bio-Rad, Hercules, CA, USA). The primary and secondary antibodies used are listed in the Supplementary Information.
22Rv1 cells were seeded in T75 culture bottles (4 × 10^6 cells/bottle in 20 mL/bottle), treated for 48 h and harvested by scratching. The further separation of cytosolic, mitochondrial and nuclear fractions was performed using the Cell Fractionation Kit ab109719 (abcam, Cambridge, MA) as previously described. Mitochondrial and cytosolic fractions were concentrated using Amicon® Ultra-2 Centrifugal Filter device (Cat. No. UFC203024, Merck, Darmstadt, Germany). Nuclear fractions were additionally homogenized using QIAshedder kit (QIAGEN, Hilden, Germany).

Question: With CC1(C)OC2OC(C(O)COC3=CC(=O)c4cccc(O)c4C3=O)C(O)C2O1 (stereo not drawn) [Compound 11] as the compound, how does the pIC50 (PC-3 cells; Homo sapiens, PC-3, 48 h, 48 h of treatment) read?
Answer: 5.68

Question: And the “SI [IC50(PNT2) / IC50(PC-3)]” value (PC-3 cells; ratio of IC50 in PNT2 cells to IC50 in PC-3 cells, 48 h)?
Answer: 2.40

Question: And the pIC50 (RWPE-1 cells)?
Answer: 5.83

Question: What about the pIC50 (DU145 cells) of the same compound?
Answer: 6.33

Question: What about the “effect of N-acetyl-L-cysteine pre-treatment on cytotoxic activity” value (22Rv1 cells [1]; 22Rv1 cells, 1 mM NaC 1 h then co-treatment 48 h, FBS- and glucose-free RPMI) of the same compound?
Answer: significantly suppressed the cytotoxic activity

Question: What about the pIC50 (22Rv1 cells [1]; 22Rv1, 48 h of treatment, cancer, read-out: IC50 (22Rv1)) of the same compound?
Answer: 6.15

Question: And the pIC50 (22Rv1 cells [1]; 22Rv1 cells, 2 h treatment, read-out: IC50 after 2 h of treatment)?
Answer: 4.69

Question: What about the pIC50 (LNCaP cells) of the same compound?
Answer: 6.24

Question: What about the pIC50 (22Rv1 cells [2]) of the same compound?
Answer: 5.69

Question: And the “effect on ΔΨm” value (22Rv1 cells [3])?
Answer: quick ΔΨm loss

Question: And the “cancer cell colony formation” value (22Rv1 cells [4])?
Answer: suppress cancer cell colony formation

Question: What about the “release of mitochondrial proteins AIF and cytochrome C” value (22Rv1 cells [5]) of the same compound?
Answer: release of mitochondrial proteins
